Test results reported in patent US20240290976A1, “CYCLOTETRABENZIL COMPOUNDS FOR ELECTROCHEMICAL LITHIUM-ION STORAGE” (UNIVERSITY OF HOUSTON SYSTEM, priority 2023, published 2024).
Values after ≈ are worked out from the molar mass of the structure shown. Values joined by “and” are separate entries in the source; they are usually repeats but may differ in a detail not shown here. Identical values can stand only once.

Experiments:
[1] = Solubility tests in 0.5M LiTFSI DME/DOL electrolyte; type: physicochemical; conditions: 0.5M LiTFSI in DME/DOL (v:v=1:1)
Experimental: In an argon-filled glovebox, certain mass of compounds 1-4 solids were added to vials. Then, 0.5M solution of LiTFSI in DME/DOL (v:v=1:1) was slowly added dropwise and the mixture was manually stirred until all material visibly dissolved. The amount of LiTFSI solution used was recorded to determine the solubility of each compound in the electrolyte. The order of solubility from highest to lowest is compound 4 (163.7 mmol L^−1), compound 1 (12.48 mmol L^−1), compound 2 (3.57 mmol L^−1), and compound 3 (2.76 mmol L^−1).

[2] = UV-vis of soaked solutions from cathode/separator at 50% state-of-discharge; type: physicochemical; conditions: ~360 nm; 50% state-of-charge; DME/DOL
Experimental: The CR2032 coin cell with cathode 2 or cathode 4 was discharged at the rate of 100 mA g^−1 until 50% state-of-discharge and was disassembled in an argon-filled glovebox. Then, the cathode and separator were immersed into 1.0 mL DME/DOL(1/1 v %) solvent for 6h. For the UV-vis absorption measurements, 30 μL of solution was extracted from the soaked vials and diluted with 3000 μL of DME/DOL solvent.

Row | solubility in the electrolyte [1] | melting point | absorbance intensity of soaked solution, higher than that of compound 2 [2] | Compound
1 | 12.48 mM (≈ 6600 µg/mL) |  |  | O=C1C(=O)c2ccc(cc2)C(=O)C(=O)c2ccc(cc2)C(=O)C(=O)c2ccc(cc2)C(=O)C(=O)c2ccc1cc2 [compound 1]
2 | 3.6 ± 0.1 mM and 3.57 mM | > 360 °C (dec.) |  | O=C1C(=O)c2ccc3cc(ccc3c2)C(=O)C(=O)c2ccc3cc(ccc3c2)C(=O)C(=O)c2ccc3cc(ccc3c2)C(=O)C(=O)c2ccc3cc1ccc3c2 [compound 2]
3 | 2.76 mM (≈ 2300 µg/mL) | 332 to 334 °C |  | O=C1C(=O)c2ccc(cc2)-c2ccc(cc2)C(=O)C(=O)c2ccc(cc2)-c2ccc(cc2)C(=O)C(=O)c2ccc(cc2)-c2ccc(cc2)C(=O)C(=O)c2ccc(cc2)-c2ccc1cc2 [compound 3]
4 | 164 ± 1 mM and 163.7 mM |  | 300% | O=C(C(=O)c1ccc2ccccc2c1)c1ccc2ccccc2c1 [compound 4, 1,2-bis(2-naphthyl)ethan-1,2-dione, reference compound]
